Experiments:
rice [1] = test: Test Example 1: foliage treatment, upland pot test; assay type: in vivo, Oryza sativa L.; conditions: crop, observed 18th to 23rd day, 0 = non-treated, 100 = complete kill
Description: (§1) Upland field soil was put into a 1/170,000 ha pot, and seed of various plants were sown. Then, when the plants reached predetermined leaf stages ((1) barnyardgrass: 1.3 to 2.8 leaf stages, (2) crabgrass: 1.0 to 2.8 leaf stages, (3) green foxtail: 1.3 to 2.6 leaf stages, (4) redroot pigweed: 0.1 to 1.2 leaf stages, (5) prickly sida: 0.1 to 1.2 leaf stages, (6) velvetleaf: 0.1 to 1.2 leaf stages, (7) tall morningglory: 0.1 to 1.5 leaf stages, (8) rice: 1.2 to 2.6 leaf stages, (9) wheat: 1.3 to 2.4 leaf stages, (10) corn, 2.1 to 3.2 leaf stages, (11) soybean: 0.1 to 0.4 leaf stage), a wettable powder or emulsifiable concentrate having the compound of the present invention formulated in accordance with a usual formulation method, was weighed so that the active ingredient would be a predetermined amount, and diluted with water in an amount of 500 L/ha. To the diluted solution, 0.1% (v/v) of agricultural spreader was added. The herbicide thus adjusted was applied by a small size sprayer for foliage treatment. On the 18th to 23rd days after the application of the herbicide, the growth of the respective plants was visually observed, and the herbicidal effects were evaluated by the growth controlling degrees (%) ranging from 0 (equivalent to the non-treated plot) to 100 (complete kill), whereby the results shown in Table 3, were obtained.

corn [2] = test: Test Example 1: foliage treatment, upland pot test; assay type: in vivo, Zea mays L.; conditions: crop, observed 18th to 23rd day, 0 = non-treated, 100 = complete kill
Description: as §1

barnyardgrass [3] = test: Test Example 1: foliage treatment, upland pot test; assay type: in vivo, Echinochloa crus-galli L.; conditions: observed 18th to 23rd day, 0 = non-treated, 100 = complete kill
Description: as §1

rice (var. Nihonbare) = test: Test Example 3: paddy pot test, transplanted rice; assay type: in vivo, Oryza sativa L.; conditions: applied 4th day after transplantation, visually observed 21st day after application, 0 = non-treated, 100 = complete kill
Procedure, shortened: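 Rice (var. Nihonbare) at 2 leaf stage transplanted 3 cm deep into puddled paddy soil under 3–4 cm flooding; on day 4 after transplanting, diluted wettable powder or emulsifiable concentrate applied by pipette under submerged conditions at a set active-ingredient dose. Growth scored visually 21 days after application, 0 (untreated) to 100 (complete kill) %.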

crabgrass [4] = test: Test Example 2: soil surface treatment, upland pot test; assay type: in vivo, Digitaria sanguinalis L.; conditions: observed 20th to 28th day
Procedure, shortened: (§2)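 Readout was visual percent growth control (0 matching untreated, 100 complete kill) at days 20–28. Compound, as emulsifiable concentrate or wettable powder at a preset active-ingredient rate in 1,500 L/ha water, was sprayed onto sown upland soil one day after sowing.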

soybean [5] = test: Test Example 1: foliage treatment, upland pot test; assay type: in vivo, Glycine max Merr.; conditions: crop, observed 18th to 23rd day, 0 = non-treated, 100 = complete kill
Description: as §1

prickly sida [6] = test: Test Example 1: foliage treatment, upland pot test; assay type: in vivo, Sida spinosa L.; conditions: observed 18th to 23rd day, 0 = non-treated, 100 = complete kill
Description: as §1

japanese bulrush = test: Test Example 3: paddy pot test, application under submerged conditions; assay type: in vivo, Scirpus juncoides; conditions: submerged application at 0.5 leaf stage, visually observed 14 days after application, 0 = non-treated, 100 = complete kill
Procedure, shortened: (§3)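 Barnyardgrass and japanese bulrush sown in flooded paddy soil in greenhouse pots, japanese ribbon wapato tubers planted 1–2 days later; water depth kept at 3–4 cm. Diluted wettable powder or emulsifiable concentrate applied into water at 0.5-leaf or primary-leaf stage at set active-ingredient doses. Growth control scored visually at 14 days, 0 (untreated) to 100% (complete kill).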

green foxtail [7] = test: Test Example 2: soil surface treatment, upland pot test; assay type: in vivo, Setaria viridis L.; conditions: observed 20th to 28th day
Procedure, shortened: as §2

velvetleaf [8] = test: Test Example 1: foliage treatment, upland pot test; assay type: in vivo, Abutilon theophrasti MEDIC.; conditions: observed 18th to 23rd day, 0 = non-treated, 100 = complete kill
Description: as §1

green foxtail [9] = test: Test Example 1: foliage treatment, upland pot test; assay type: in vivo, Setaria viridis L.; conditions: observed 18th to 23rd day, 0 = non-treated, 100 = complete kill
Description: as §1

soybean [10] = test: Test Example 2: soil surface treatment, upland pot test; assay type: in vivo, Glycine max Merr.; conditions: observed 20th to 28th day
Procedure, shortened: as §2

redroot pigweed [11] = test: as above; assay type: in vivo, Amaranthus retroflexus L.; conditions: observed 20th to 28th day
Procedure, shortened: as §2

rice [12] = test: as above; assay type: in vivo, Oryza sativa L.; conditions: observed 20th to 28th day
Procedure, shortened: as §2

velvetleaf [13] = test: as above; assay type: in vivo, Abutilon theophrasti MEDIC.; conditions: observed 20th to 28th day
Procedure, shortened: as §2

redroot pigweed [14] = test: Test Example 1: foliage treatment, upland pot test; assay type: in vivo, Amaranthus retroflexus L.; conditions: active ingredient 1000 g/ha, observed 18th to 23rd day, 0 = non-treated, 100 = complete kill
Description: as §1

corn [15] = test: Test Example 2: soil surface treatment, upland pot test; assay type: in vivo, Zea mays L.; conditions: observed 20th to 28th day
Procedure, shortened: as §2

japanese ribbon wapato = test: Test Example 3: paddy pot test, application under submerged conditions; assay type: in vivo, Sagittaria pygniaea; conditions: submerged application at primary leaf stage, visually observed 14 days after application, 0 = non-treated, 100 = complete kill
Procedure, shortened: as §3

prickly sida [16] = test: Test Example 2: soil surface treatment, upland pot test; assay type: in vivo, Sida spinosa L.; conditions: observed 20th to 28th day
Procedure, shortened: as §2

barnyardgrass [17] = test: as above; assay type: in vivo, Echinochloa crus-galli L.; conditions: observed 20th to 28th day
Procedure, shortened: as §2

crabgrass [18] = test: Test Example 1: foliage treatment, upland pot test; assay type: in vivo, Digitaria sanguinalis L.; conditions: active ingredient 500 g/ha, observed 18th to 23rd day, 0 = non-treated, 100 = complete kill
Description: as §1

barnyardgrass [19] = test: Test Example 3: paddy pot test, application under submerged conditions; assay type: in vivo, Echinochloa crus-galli L.; conditions: active ingredient 250 g/ha; submerged application at 0.5 leaf stage; visually observed 14 days after application; 0 = non-treated, 100 = complete kill
Procedure, shortened: as §3

| Compound | Growth controlling degree (%) Rice (rice [1]; active ingredient 1000 g/ha) | Growth controlling degree (%) Corn (corn [2]; active ingredient 1000 g/ha) | Growth controlling degree (%) Barnyardgrass (barnyardgrass [3]; active ingredient 1000 g/ha) | Growth controlling degree (%) Soybean (soybean [5]; active ingredient 1000 g/ha) | Growth controlling degree (%) Prickly sida (prickly sida [6]; active ingredient 1000 g/ha) | Growth controlling degree (%) Velvetleaf (velvetleaf [8]; active ingredient 1000 g/ha) | Growth controlling degree (%) Redroot pigweed (redroot pigweed [14]) | Growth controlling degree (%) Rice (rice (var. Nihonbare); active ingredient 250 g/ha) | Growth controlling degree (%) Crabgrass (crabgrass [4]; active ingredient 500 g/ha) | Growth controlling degree (%) Japanese bulrush (japanese bulrush; active ingredient 250 g/ha) | Growth controlling degree (%) Green foxtail (green foxtail [7]; active ingredient 500 g/ha) | Growth controlling degree (%) Soyabean (soybean [10]; active ingredient 500 g/ha) | Growth controlling degree (%) Redroot pigweed (redroot pigweed [11]; active ingredient 500 g/ha) | Growth controlling degree (%) Barnyardgrass (barnyardgrass [19]) | Growth controlling degree (%) Rice (rice [12]; active ingredient 500 g/ha) | Growth controlling degree (%) Velvetleaf (velvetleaf [13]; active ingredient 500 g/ha) | Growth controlling degree (%) Corn (corn [15]; active ingredient 500 g/ha) | Growth controlling degree (%) Japanese ribbon wapato (japanese ribbon wapato; active ingredient 250 g/ha) | Growth controlling degree (%) Prickly sida (prickly sida [16]; active ingredient 500 g/ha) | Growth controlling degree (%) Barnyardgrass (barnyardgrass [17]; active ingredient 500 g/ha) | further results |
| --- | --- | --- | --- | --- | --- | --- | --- | --- | --- | --- | --- | --- | --- | --- | --- | --- | --- | --- | --- | --- | --- |
| CC(C)C(c1cnccc1C(F)(F)F)N(C)C(=O)Cc1ccccc1Cl (stereo not shown) [I-26] | 30% | 30% | 90% | 50% | 80% | 80% | 90% | – | – | – | – | – | – | – | – | – | – | – | – | – | Growth controlling degree (%) Rice (rice (var. Nihonbare); active ingredient 500 g/ha): 20%; Growth controlling degree (%) Crabgrass (crabgrass [4]; active ingredient 250 g/ha): 80%; Growth controlling degree (%) Japanese bulrush (japanese bulrush; active ingredient 500 g/ha): 90%; Growth controlling degree (%) Green foxtail (green foxtail [7]; active ingredient 250 g/ha): 80%; Growth controlling degree (%) Green foxtail (green foxtail [9]; active ingredient 1000 g/ha): 70%; Growth controlling degree (%) Soyabean (soybean [10]; active ingredient 250 g/ha): 0%; Growth controlling degree (%) Redroot pigweed (redroot pigweed [11]; active ingredient 250 g/ha): 70%; Growth controlling degree (%) Rice (rice [12]; active ingredient 250 g/ha): 10%; Growth controlling degree (%) Velvetleaf (velvetleaf [13]; active ingredient 250 g/ha): 80%; Growth controlling degree (%) Corn (corn [15]; active ingredient 250 g/ha): 40%; Growth controlling degree (%) Japanese ribbon wapato (japanese ribbon wapato; active ingredient 500 g/ha): 10%; Growth controlling degree (%) Prickly sida (prickly sida [16]; active ingredient 250 g/ha): 70%; Growth controlling degree (%) Barnyardgrass (barnyardgrass [17]; active ingredient 250 g/ha): 80% |
| CC(C)C(c1cnccc1C(F)(F)F)N(C)C(=O)COc1ccc(F)cc1 (stereo not shown) [I-241] | – | – | – | – | – | – | – | 0% | 98% | 95% | 100% | 20% | 90% | 100% | 20% | 70% | 40% | 80% | 100% | 100% | Growth controlling degree (%) Crabgrass (crabgrass [18]): 95%; Growth controlling degree (%) Rice (rice [1]; active ingredient 500 g/ha): 20%; Growth controlling degree (%) Corn (corn [2]; active ingredient 500 g/ha): 30%; Growth controlling degree (%) Barnyardgrass (barnyardgrass [3]; active ingredient 500 g/ha): 70%; Growth controlling degree (%) Soybean (soybean [5]; active ingredient 500 g/ha): 80%; Growth controlling degree (%) Prickly sida (prickly sida [6]; active ingredient 500 g/ha): 80%; Growth controlling degree (%) Velvetleaf (velvetleaf [8]; active ingredient 500 g/ha): 80%; Growth controlling degree (%) Green foxtail (green foxtail [9]; active ingredient 500 g/ha): 70% |
| CCN(C(=O)Cc1cccc(C(F)(F)F)c1F)C(c1cnccc1C(F)(F)F)C(C)C (stereo not shown) [I-76] | 40% | 95% | 80% | 70% | 70% | 90% | 80% | 10% | 98% | 100% | 100% | 0% | 70% | 100% | 10% | 50% | 0% | 60% | 100% | 70% | – |

Reference: patent US20050239656A1, “Pyridine compounds or salts thereof and herbicides containing the same” (priority 2002, published 2005)
